Assay results reported in paper PMC10584170, “Machine learning-based phenotypic imaging to characterise the targetable biology of Plasmodium falciparum male gametocytes for the development of transmission-blocking antimalarials” (PLOS Pathogens, 2023).

Legend:
[1] = tested on: P. falciparum female gametocytes; test: P. falciparum Dual Gamete Formation Assay (PfDGFA), female readout (Pfs25-positive female gametes); format: cell-based, Plasmodium falciparum NF54; details: for Average inhibition female (%): average of replicates; for % inhibition female (individual replicates) R1: replicate R1; for % inhibition female (individual replicates) R3: replicate R3; for % inhibition female (individual replicates) R4: replicate R4
Outline: (§1)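 NF54 mature gametocytes (d14), cpd 24 h 37°C hypoxic gas; trigger: xanthurenic acid ookinete medium + Cy3 anti-Pfs25, 4°C 4 min → 28°C 4 min. Male: exflagellation centres, brightfield x6. Female: Pfs25+ gametes, fluorescence, +24 h 28°C dark.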

[2] = tested on: P. falciparum male gametocytes; test: P. falciparum Dual Gamete Formation Assay (PfDGFA), male readout (exflagellation); format: cell-based, Plasmodium falciparum NF54; details: for Average inhibition male (%): average of replicates; for % inhibition male (individual replicates) R1: replicate R1; for % inhibition male (individual replicates) R3: replicate R3; for % inhibition male (individual replicates) R4: replicate R4; for Activity: hit = >50% inhibition in male or female readout in at least 3 replicates, 0 = no class assigned
Outline: as §1

[3] = 2µM, 24h preincubation with gametocytes prior to induction of gametogenesis
[4] = 2µM, 24h preincubation, number of replicates with >50% inhibition in the female readout
[5] = 2µM, 24h preincubation, number of replicates with >50% inhibition in the male readout
[6] = PfDGFA at 2µM, 24h preincubation with gametocytes prior to induction of gametogenesis
[7] = PfDGFA at 2µM, 24h preincubation
[8] = 2µM, 24h preincubation, hits selected on >50% inhibition in the female readout across replicates
[9] = 2µM, 24h preincubation, hits selected on >50% inhibition in the male readout across replicates
[10] = PfDGFA at 2µM, 24h preincubation with gametocytes
[11] = number of replicates with >50% inhibition in the female readout, 2µM
[12] = number of replicates with >50% inhibition in the male readout, 2µM

SMILES	Average inhibition female (%) [1, 3] [%]	% inhibition female (individual replicates) R1 [1, 3] [%]	% inhibition female (individual replicates) R3 [1, 3] [%]	% inhibition female (individual replicates) R4 [1, 3] [%]	HitlevelF [1, 4]	Average inhibition male (%) [2, 3] [%]	% inhibition male (individual replicates) R1 [2, 3] [%]	% inhibition male (individual replicates) R3 [2, 3] [%]	% inhibition male (individual replicates) R4 [2, 3] [%]	HitlevelM [2, 5]	other results
Nc1nc(N)c2c(ccc3c2ccn3Cc2cccc(F)c2)n1 [TCMDC-137810]	73.3	69.9	85.4	66.6	4	57.9	71.9	59.3	64.6	3	
Nc1nc(N)c2c(ccc3c2ccn3CCCCO)n1 [TCMDC-137959]											% inhibition female (individual replicates) R1 [1, 6]: -0.01%; % inhibition female (individual replicates) R3 [1, 6]: -3.7%; % inhibition female (individual replicates) R4 [1, 6]: 2.0%; Average inhibition female (%) [1, 7]: -0.9%; % inhibition male (individual replicates) R1 [2, 6]: 21.0%; % inhibition male (individual replicates) R4 [2, 6]: -1.8%; Average inhibition male (%) [2, 7]: 15.1%
Nc1nc(N)c2c(ccc3c2cnn3Cc2cccnc2)n1 [TCMDC-131932]	18.1	3.3	58.3	1.8	1	12.5	4.3	31.7	1.1	0	
CN(CCN)Cc1ccc(-c2ccc(-c3nc4cc(C(F)(F)F)ccc4[nH]3)s2)cc1.O=C(O)C(F)(F)F [TCMDC-132821]	8.7	4.7	20.4	7.1		-7.8	-14.8		-7.6		HitlevelF [1, 8]: 0; HitlevelM [2, 9]: 0; Activity [2, 7]: 0
CCCCCCOc1ccc2ccccc2c1CNCCCCCCNCc1c(OCCCCCC)ccc2ccccc12.CS(=O)(=O)O [TCMDC-137963]	30.9	24.3	23.7	29.4	0	26.5	35.9	2.2	25.6	0	
CNCCCNCc1ccc(-c2ccc(F)c(Cl)c2)o1.Cl [TCMDC-125237]	13.7	17.7	9.1	15.1		15.1	6.0		19.5		HitlevelF [1, 8]: 0; HitlevelM [2, 9]: 0; Activity [2, 7]: 0
COc1cc2ccccc2c(CNCCCCCCNCc2c(OC)c(OC)cc3ccccc23)c1OC.CS(=O)(=O)O [TCMDC-137795]											Average inhibition female (%) [1, 10]: 31.5%; % inhibition female (individual replicates) R1 [1, 10]: 34.0%; % inhibition female (individual replicates) R3 [1, 10]: 23.0%; % inhibition female (individual replicates) R4 [1, 10]: 18.6%; HitlevelF [1, 11]: 1; Average inhibition male (%) [2, 10]: 66.8%; % inhibition male (individual replicates) R1 [2, 10]: 59.0%; % inhibition male (individual replicates) R3 [2, 10]: 36.7%; % inhibition male (individual replicates) R4 [2, 10]: 86.9%; HitlevelM [2, 12]: 3
CC(=O)Nc1ccc2[nH]cc(C3CCN(CC4CCC(NC(=O)/C=C/c5ccccc5Cl)CC4)CC3)c2n1 (centres unmarked) [TCMDC-140111]	28.1	31.7	20.9	26.6	0	33.8	38.4		14.3	0	
Br.CC(C)(Cc1ccc(Cl)cc1)NCCCCCCNCCc1ccc(O)c(O)c1 [TCMDC-131277]	25.5	31.9	42.8	1.4	0	21.3	17.2	18.9	31.6	0	
CN1CCCC1CCNCc1cccc(-c2cnc(N3CCCC(C)(C)C3)nc2)c1 (centres unmarked) [TCMDC-133144]	21.7	23.0	21.4	13.1	0	57.1	64.8	37.3	70.2	3	
N#CCSc1nnc(-c2ccccc2)c2ccccc12 [TCMDC-123867]											% inhibition female (individual replicates) R1 [1, 6]: 9.7%; % inhibition female (individual replicates) R3 [1, 6]: -27.1%; % inhibition female (individual replicates) R4 [1, 6]: 6.9%; Average inhibition female (%) [1, 7]: -4.3%; % inhibition male (individual replicates) R1 [2, 6]: -3.0%; % inhibition male (individual replicates) R3 [2, 6]: 10.5%; % inhibition male (individual replicates) R4 [2, 6]: -3.8%; Average inhibition male (%) [2, 7]: 1.3%
Cc1cc(N2CCCN(CC3CCCCC3)CC2)nc(Nc2ccc(Br)cc2)n1 [TCMDC-137133]	14.4	13.7	2.2	35.3		-4.7	-4.0	-2.0	-6.5		HitlevelF [1, 8]: 0; HitlevelM [2, 9]: 0; Activity [2, 7]: 0
O=C(CCC1CCCC1)N(Cc1ccc(-c2ccc(CNCCc3ccccc3)cc2)cc1)C1CCCNC1.O=C(O)C(F)(F)F (centres unmarked) [TCMDC-141444]											Average inhibition female (%) [1, 10]: 21.8%; % inhibition female (individual replicates) R1 [1, 10]: 31.1%; % inhibition female (individual replicates) R3 [1, 10]: 20.3%; % inhibition female (individual replicates) R4 [1, 10]: 22.2%; HitlevelF [1, 11]: 0; Average inhibition male (%) [2, 10]: 71.0%; % inhibition male (individual replicates) R1 [2, 10]: 62.4%; % inhibition male (individual replicates) R3 [2, 10]: 42.1%; % inhibition male (individual replicates) R4 [2, 10]: 88.2%; HitlevelM [2, 12]: 3
COc1cccc(CCNCCCCCCNCCc2ccc(Cl)cc2)c1.Cl [TCMDC-131284]	15.8	18.4	6.6	6.5		40.5	42.7	17.7	36.9		HitlevelF [1, 8]: 0; HitlevelM [2, 9]: 1; Activity [2, 7]: 0
CNCCNCc1cccc(-c2ccc(-c3nc4cc(C(F)(F)F)ccc4[nH]3)cc2)c1.O=C(O)C(F)(F)F [TCMDC-132834]	13.1	23.3	8.2	10.1		47.7	40.3	3.4	68.9		HitlevelF [1, 8]: 0; HitlevelM [2, 9]: 2; Activity [2, 7]: 0
Nc1cc2c(C3CCN(CC4CCN(C(=O)/C=C/c5ccc(Cl)c(Cl)c5)CC4)CC3)c[nH]c2cn1 [TCMDC-140133]	13.5	13.3	3.5	10.0	0	52.8	50.4	47.4	52.9	3	
COc1cc2nc(N3CCC(CNC(=O)c4ccc(-c5ccc(C(F)(F)F)cc5)cc4)CC3)nc(N)c2cc1OC [TCMDC-138716]											Average inhibition female (%) [1, 10]: 47.4%; % inhibition female (individual replicates) R1 [1, 10]: 32.4%; % inhibition female (individual replicates) R3 [1, 10]: 31.5%; % inhibition female (individual replicates) R4 [1, 10]: 42.3%; HitlevelF [1, 11]: 1; Average inhibition male (%) [2, 10]: 66.2%; % inhibition male (individual replicates) R1 [2, 10]: 83.5%; % inhibition male (individual replicates) R3 [2, 10]: 34.3%; % inhibition male (individual replicates) R4 [2, 10]: 64.2%; HitlevelM [2, 12]: 3
